Test results reported in article PMC12483202, “Pharmacokinetic profile of oral firocoxib in the koala (Phascolarctos cinereus)” (PLOS One, 2025).

Experiment: Single oral dose (5 mg/kg) pharmacokinetics of firocoxib in koalas, plasma HPLC, non-compartmental analysis;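 note: healthy adult koalas, three per sex, anaesthetised the day before dosing for cephalic vein catheterisation, with serial blood draws and firocoxib in plasma quantified by HPLC using fluorescence detection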
Conditions: for AUC(0-t): AUC0-t; for MRT inf: MRT0-inf; for k el: ke; for concentration at 1 h / concentration at 2 h / concentration at 4 h / concentration at 8 h: koala (Phascolarctos cinereus)
[1] = arithmetic mean, female koalas (n = 3), single oral 5 mg/kg
[2] = arithmetic mean, male koalas (n = 3), single oral 5 mg/kg
[3] = arithmetic mean, n = 6 koalas, single oral 5 mg/kg
[4] = both, plasma, po, 5 mg/kg, arithmetic mean, n = 6 koalas, single oral 5 mg/kg
[5] = both, plasma, po, 5 mg/kg, harmonic mean, n = 6 koalas, single oral 5 mg/kg
[6] = both, plasma, po, 5 mg/kg, median (range), n = 6 koalas, single oral 5 mg/kg
[7] = female, plasma, po, 5 mg/kg, Firocoxib plasma concentration, K4 female, single oral 5 mg/kg
[8] = female, plasma, po, 5 mg/kg, Firocoxib plasma concentration, K5 female, single oral 5 mg/kg
[9] = female, plasma, po, 5 mg/kg, Firocoxib plasma concentration, K6 female, single oral 5 mg/kg
[10] = female, koala, plasma, po, 5 mg/kg, Firocoxib plasma concentration, K4 female, single oral 5 mg/kg
[11] = female, koala, plasma, po, 5 mg/kg, Firocoxib plasma concentration, K5 female, single oral 5 mg/kg
[12] = female, koala, plasma, po, 5 mg/kg, Firocoxib plasma concentration, K6 female, single oral 5 mg/kg
[13] = female, plasma, po, 5 mg/kg, K4 female, single oral 5 mg/kg
[14] = female, plasma, po, 5 mg/kg, K5 female, single oral 5 mg/kg
[15] = female, plasma, po, 5 mg/kg, K6 female, single oral 5 mg/kg
[16] = female, plasma, po, 5 mg/kg, arithmetic mean, female koalas (n = 3), single oral 5 mg/kg
[17] = female, plasma, po, 5 mg/kg, harmonic mean, female koalas (n = 3), single oral 5 mg/kg

Description: Six mature koalas (3 males, 3 females) with median (range) body weights and ages of 9.2 kg, (7.5 to 9.7 kg) and 4.8 years (4.3 to 9.1 years), respectively, were recruited from the Taronga Zoo colony (Mosman, NSW, Australia). These koalas were clinically normal based on regular physical examinations, haematological and biochemical analyte values. During the study, koalas were housed singly and supplied with various Eucalyptus spp. foliage and water ad-libitum. […] No animals were sacrificed; the animals were returned to the colony immediately after firocoxib administration and blood sampling. In order to minimise stress, intravenous catheterisation for sequential blood sampling was performed under general anaesthesia.
The day prior to drug administration and blood collection, the koalas were anaesthetised with alfaxalone (Alfaxan, Jurox, Pty Ltd, Rutherford, NSW, Australia) at 3 mg/kg administered intramuscularly (i.m.) and maintained under anaesthesia on isoflurane in 100% oxygen via a face mask for placement of a 20 gauge, 1 ¼ inch intravenous catheter into the cephalic vein. A short T-connector extension set (Codan, Santa Ana, CA, USA) and cap was attached to the catheter and flushed with saline. The extension tube, cap and catheter were secured with tape and bandage, for serial blood collection. Blood (5 mL) was collected at the time of anaesthesia in a lithium heparin tube to establish a baseline (t = 0 h).
Firocoxib was administered as a single oral dose of 5 mg/kg as crushed tablets made into a paste with Vetafarm Koala Crittacare (Wagga Wagga, NSW) and water.
Samples were centrifuged at 1500 x g for 10 minutes, within 1 h of collection; the plasma was immediately stored at –80 °C and protected from light until drug quantification. […] Clinical observations for the presence of adverse effects in the animals treated included measurement of vital signs, appetite, body weight, faecal consistency and overall behaviour and mobility.
Quantification of firocoxib and visualisation of metabolites in plasma was achieved by HPLC with fluorescence detection modified from a published method [12]. The HPLC system consisted of a Shimadzu LC-20AT solvent delivery unit, DGU-20A degasser, a SIL-20A HT auto injector, an SPD-20A UV detector and RF-10A XL fluorescence detector (Shimadzu, Rydalmere, NSW, Australia) and column oven (CTO-20A). […] Chromatographic separation was performed with a Supelco, Discovery C18, (25 cm x 4.6 mm, 5 µm) column (Merck KGaA, Darmstadt, Germany) with a 1-mm Opti-guard C18 pre-column (Choice Analytical, Thornleigh, NSW, Australia) at ambient temperature. […] Fluorescence detection excitation and emission wavelengths were 280 nm and 375 nm, respectively.
For sample preparation 200 μL of each of the following: plasma samples collected from koalas administered firocoxib, standards prepared for the standard curves and the QC samples; were extracted twice by mixing with 800 μL of ethyl acetate. The extracted organic portion (1.6 mL) was dried under vacuum in a Speed Vac Concentrator (Thermo Scientific, MA, USA) at 35 °C for 1 h, reconstituted with 100 μL of acetonitrile, and finally 10 μL of the reconstituted sample was injected into the HPLC system.
The concentration of each QC sample was repeated three times with the accuracy and precision calculated on each of the triplicates. The mean accuracy ± standard deviation (SD) were calculated using the formula [13]:
Firocoxib plasma concentrations from the initial oral administration underwent non-compartmental analysis. The peak concentration (Cmax) and the time reached (Tmax) were obtained directly from the measured concentrations. The elimination half-life (t1/2) was determined by ln2/ke where ke is the elimination rate constant which is the inverse slope of the elimination or terminal part of the semi-log curve.

CC1(C)OC(=O)C(OCC2CC2)=C1c1ccc(S(C)(=O)=O)cc1 [firocoxib]
AUC 0-t/AUC0-inf (K1 male, single oral 5 mg/kg): 0.72
AUMC 0-inf (K1 male, single oral 5 mg/kg): 56998 ng/mL*h^2
Cl/F (K1 male, single oral 5 mg/kg): 19.0 L/h
ka (absorption constant) (K1 male, single oral 5 mg/kg): 0.11 h⁻¹
AUC 0-t/AUC0-inf (K2 male, single oral 5 mg/kg): 0.99
AUMC 0-inf (K2 male, single oral 5 mg/kg): 11422 ng/mL*h^2
Cl/F (K2 male, single oral 5 mg/kg): 30.5 L/h
ka (absorption constant) (K2 male, single oral 5 mg/kg): 0.21 h⁻¹
AUC 0-t/AUC0-inf (K3 male, single oral 5 mg/kg): 0.99
AUMC 0-inf (K3 male, single oral 5 mg/kg): 13436.9 ng/mL*h^2
Cl/F (K3 male, single oral 5 mg/kg): 24.6 L/h
ka (absorption constant) (K3 male, single oral 5 mg/kg): 0.17 h⁻¹
AUC 0-t/AUC0-inf (K4 female, single oral 5 mg/kg): 0.98
AUMC 0-inf (K4 female, single oral 5 mg/kg): 8500.1 ng/mL*h^2
Cl/F (K4 female, single oral 5 mg/kg): 38.5 L/h
ka (absorption constant) (K4 female, single oral 5 mg/kg): 0.43 h⁻¹
AUC 0-t/AUC0-inf (K5 female, single oral 5 mg/kg): 0.94
AUMC 0-inf (K5 female, single oral 5 mg/kg): 11402.2 ng/mL*h^2
Cl/F (K5 female, single oral 5 mg/kg): 49.2 L/h
ka (absorption constant) (K5 female, single oral 5 mg/kg): 0.25 h⁻¹
AUC 0-t/AUC0-inf (K6 female, single oral 5 mg/kg): 0.83
AUMC 0-inf (K6 female, single oral 5 mg/kg): 14183.2 ng/mL*h^2
Cl/F (K6 female, single oral 5 mg/kg): 87.5 L/h
ka (absorption constant) (K6 female, single oral 5 mg/kg): 0.25 h⁻¹
AUC 0-t/AUC0-inf [1]: 0.92
AUMC 0-inf [1]: 11361.8 ng/mL*h^2
Cl/F [1]: 58.4 L/h
ka [1]: 0.28 h⁻¹
AUC 0-t/AUC0-inf [2]: 0.90
AUMC 0-inf [2]: 27285.7 ng/mL*h^2
Cl/F [2]: 24.7 L/h
ka [2]: 0.19 h⁻¹
AUMC [3]: 19323.8 ng/mL*h ^ 2
Cl/F [3]: 41.6 L/h
ka [3]: 0.24 h⁻¹
AUC(0-inf) (both, plasma, po, 5 mg/kg, AUC0-inf, arithmetic mean, n = 6 koalas, single oral 5 mg/kg): 1480 ng·h/mL
AUC(0-inf) (both, plasma, po, 5 mg/kg, AUC0-inf, harmonic mean, n = 6 koalas, single oral 5 mg/kg): 1080 ng·h/mL
AUC(0-inf) (both, plasma, po, 5 mg/kg, AUC0-inf, median (range), n = 6 koalas, single oral 5 mg/kg): 1260 ng·h/mL
AUC(0-t) [4]: 1310 ng·h/mL
AUC(0-t) [5]: 974 ng·h/mL
AUC(0-t) [6]: 1240 ng·h/mL
Cmax [4]: 141 ng/mL
Cmax [5]: 79.2 ng/mL
Cmax [6]: 140 ng/mL
MRT inf [4]: 12 h
MRT inf [5]: 10.7 h
MRT inf [6]: 12.2 h
Tmax [4]: 4.33 h
Tmax [5]: 3.69 h
Tmax [6]: 4 h
Tmax (both, plasma, po, 5 mg/kg, median value, both sexes, koala (6), PO 5 mg/kg): 4 h
Vd/F (both, plasma, po, 5 mg/kg, Vss/F, arithmetic mean, n = 6 koalas, single oral 5 mg/kg): 674 L
Vd/F (both, plasma, po, 5 mg/kg, Vss/F, harmonic mean, n = 6 koalas, single oral 5 mg/kg): 332 L
Vd/F (both, plasma, po, 5 mg/kg, Vss/F, median (range), n = 6 koalas, single oral 5 mg/kg): 811 L
Vd/F (both, plasma, po, 5 mg/kg, Vz/F, arithmetic mean, n = 6 koalas, single oral 5 mg/kg): 582 L
Vd/F (both, plasma, po, 5 mg/kg, Vz/F, harmonic mean, n = 6 koalas, single oral 5 mg/kg): 230 L
Vd/F (both, plasma, po, 5 mg/kg, Vz/F, median (range), n = 6 koalas, single oral 5 mg/kg): 240 L
k el [4]: 3.89e-05 s⁻¹
k el [5]: 2.78e-05 s⁻¹
k el [6]: 4.17e-05 s⁻¹
half-life (both, plasma, po, 5 mg/kg, t1/2, arithmetic mean, n = 6 koalas, single oral 5 mg/kg): 7 h
half-life (both, plasma, po, 5 mg/kg, t1/2, harmonic mean, n = 6 koalas, single oral 5 mg/kg): 5.01 h
half-life (both, plasma, po, 5 mg/kg, t1/2, median (range), n = 6 koalas, single oral 5 mg/kg): 5.46 h
MRT inf (female, in vivo, po, 5 mg/kg, K6 female, single oral 5 mg/kg): 26.4 h
concentration at 1 h [7]: 8.27 ng/mL
concentration at 2 h [7]: 24.3 ng/mL
concentration at 4 h [7]: 89.3 ng/mL
concentration at 8 h [7]: 74.7 ng/mL
concentration at 1 h [8]: 28.6 ng/mL
concentration at 2 h [8]: 61.9 ng/mL
concentration at 4 h [8]: 51.8 ng/mL
concentration at 8 h [8]: 45.8 ng/mL
concentration at 1 h [9]: 7.89 ng/mL
concentration at 2 h [9]: 12.3 ng/mL
concentration at 4 h [9]: 28.9 ng/mL
concentration at 8 h [9]: 17.5 ng/mL
concentration at 0.25 h [10]: 0.78 ng/mL
concentration at 0.5 h [10]: 1.23 ng/mL
concentration at 12 h [10]: 40.2 ng/mL
concentration at 24 h [10]: 3.7 ng/mL
concentration at 0.25 h [11]: 3.74 ng/mL
concentration at 0.5 h [11]: 5.88 ng/mL
concentration at 12 h [11]: 23.3 ng/mL
concentration at 24 h [11]: 12.8 ng/mL
concentration at 36 h [11]: 3.83 ng/mL
concentration at 0.25 h [12]: 3.58 ng/mL
concentration at 0.5 h [12]: 10.6 ng/mL
concentration at 12 h [12]: 13.2 ng/mL
concentration at 24 h [12]: 3.78 ng/mL
concentration at 36 h [12]: 7.02 ng/mL
concentration at 48 h (female, koala, plasma, po, 5 mg/kg, Firocoxib plasma concentration, K6 female, 48 h, single oral 5 mg/kg): 3.83 ng/mL
AUC(0-inf) (female, plasma, po, 5 mg/kg, AUC0-inf, K4 female, single oral 5 mg/kg): 973 ng·h/mL
AUC(0-inf) (female, plasma, po, 5 mg/kg, AUC0-inf, K5 female, single oral 5 mg/kg): 868 ng·h/mL
AUC(0-inf) (female, plasma, po, 5 mg/kg, AUC0-inf, K6 female, single oral 5 mg/kg): 537 ng·h/mL
AUC(0-inf) (female, plasma, po, 5 mg/kg, AUC 0-inf, arithmetic mean, female koalas (n = 3), single oral 5 mg/kg): 793 ng·h/mL
AUC(0-inf) (female, plasma, po, 5 mg/kg, AUC 0-inf, harmonic mean, female koalas (n = 3), single oral 5 mg/kg): 742 ng·h/mL
AUC(0-t) [13]: 954 ng·h/mL
AUC(0-t) [14]: 820 ng·h/mL
AUC(0-t) [15]: 444 ng·h/mL
AUC(0-t) [16]: 739 ng·h/mL
AUC(0-t) [17]: 664 ng·h/mL
Cmax [13]: 89.3 ng/mL
Cmax [14]: 61.9 ng/mL
Cmax [15]: 28.9 ng/mL
Cmax [16]: 60.3 ng/mL
Cmax [17]: 48.4 ng/mL
